Assay results reported in the supplement of paper PMC11061612.

What was measured:
AZD5991 = compound: Cc1c2c(nn1C)CSCc1cc(n(C)n1)CSc1cc(c3ccccc3c1)OCCCc1c(C(=O)O)n(C)c3c-2c(Cl)ccc13 [AZD5991]; conditions: max 1 µM
Procedure, shortened: (§1)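 Cancer cell lines were dosed for 72 hours (final DMSO typically 0.2%) after 24 hours at 37°C and 5% CO2 in 1536-well plates containing 7.5 μl DMEM/F12 or RPMI with 10% FBS. Viability came from CellTiter-Glo 2.0 luminescence, scaled between blank-well and DMSO-well means, and dose responses were fitted to a two-parameter logistic curve with a non-linear mixed effects model. The single-agent IC50 was obtained from this fit.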

Alisertib = compound: COc1cc(Nc2ncc3c(n2)-c2ccc(Cl)cc2C(c2c(F)cccc2OC)=NC3)ccc1C(=O)O [Alisertib]; conditions: max 10 µM
Procedure, shortened: as §1

Taselisib = compound: Cc1nc(-c2cn3c(n2)-c2ccc(-c4cnn(C(C)(C)C(N)=O)c4)cc2OCC3)n(C(C)C)n1 [Taselisib]; conditions: max 10 µM
Procedure, shortened: as §1

AZD1390 = compound: CC(C)n1c(=O)n(C)c2cnc3cc(F)c(-c4ccc(OCCCN5CCCCC5)nc4)cc3c21 [AZD1390]; conditions: max 0.3 µM
Procedure, shortened: as §1

Prexasertib = compound: COc1cccc(OCCCN)c1-c1cc(Nc2cnc(C#N)cn2)n[nH]1 [Prexasertib]; conditions: max 1 µM
Procedure, shortened: as §1

AZD8186 = compound: C[C@@H](Nc1cc(F)cc(F)c1)c1cc(C(=O)N(C)C)cc2c(=O)cc(N3CCOCC3)oc12 [AZD8186]; conditions: max 10 µM
Procedure, shortened: as §1

Carboplatin = compound: C1CC(C1)(C(=O)[O-])C(=O)[O-].N.N.[Pt+2] [Carboplatin]; conditions: max 10 µM
Procedure, shortened: as §1

Venetoclax = compound: CC1(C)CCC(CN2CCN(c3ccc(C(=O)NS(=O)(=O)c4ccc(NCC5CCOCC5)c([N+](=O)[O-])c4)c(Oc4cnc5[nH]ccc5c4)c3)CC2)=C(c2ccc(Cl)cc2)C1 [Venetoclax]; conditions: max 1 µM
Procedure, shortened: as §1

Trametinib = compound: CC(=O)Nc1cccc(-n2c(=O)n(C3CC3)c(=O)c3c(Nc4ccc(I)cc4F)n(C)c(=O)c(C)c32)c1 [Trametinib]; conditions: max 1 µM
Procedure, shortened: as §1

AZD7648 = compound: Cc1cc2ncnn2cc1Nc1ncc2c(n1)n(C1CCOCC1)c(=O)n2C [AZD7648]; conditions: max 10 µM
Procedure, shortened: as §1

5-Fluorouracil = compound: O=c1[nH]cc(F)c(=O)[nH]1 [5-Fluorouracil]; conditions: max 20 µM
Procedure, shortened: as §1

[1] = compound: O=C(Nc1ccc2[nH]nc(-c3ccncc3)c2c1)[C@@H]1CCN(CC(=O)N2CCN(c3ccc(-c4ncccn4)cc3)CC2)C1; conditions: max 5 µM
Procedure, shortened: as §1

Gefitinib = compound: COc1cc2ncnc(Nc3ccc(F)c(Cl)c3)c2cc1OCCCN1CCOCC1 [Gefitinib]; conditions: max 10 µM
Procedure, shortened: as §1

Etoposide = compound: COc1cc([C@@H]2c3cc4c(cc3[C@@H](O[C@@H]3O[C@@H]5CO[C@@H](C)O[C@H]5[C@H](O)[C@H]3O)[C@H]3COC(=O)[C@H]23)OCO4)cc(OC)c1O [Etoposide]; conditions: max 10 µM
Procedure, shortened: as §1

MK-2206 = compound: NC1(c2ccc(-c3nc4ccn5c(=O)[nH]nc5c4cc3-c3ccccc3)cc2)CCC1 [MK-2206]; conditions: max 10 µM
Procedure, shortened: as §1

Crizotinib = compound: C[C@@H](Oc1cc(-c2cnn(C3CCNCC3)c2)cnc1N)c1c(Cl)ccc(F)c1Cl [Crizotinib]; conditions: max 10 µM
Procedure, shortened: as §1

AZD1775 = compound: C=CCn1c(=O)c2cnc(Nc3ccc(N4CCN(C)CC4)cc3)nc2n1-c1cccc(C(C)(C)O)n1 [AZD1775]
Procedure, shortened: as §1

Savolitinib = compound: C[C@@H](c1ccc2nccn2c1)n1nnc2ncc(-c3cnn(C)c3)nc21 [Savolitinib]; conditions: max 1 µM
Procedure, shortened: as §1

AZD5153 = compound: COc1nnc2ccc(N3CCC(c4ccc(OCCN5CCN(C)C(=O)[C@H]5C)cc4)CC3)nn12 [AZD5153]; conditions: max 1 µM
Procedure, shortened: as §1

Selumetinib = compound: Cn1cnc2c(F)c(Nc3ccc(Br)cc3Cl)c(C(=O)NOCCO)cc21 [Selumetinib]; conditions: max 10 µM
Procedure, shortened: as §1

Olaparib = compound: O=C(c1cc(Cc2n[nH]c(=O)c3ccccc23)ccc1F)N1CCN(C(=O)C2CC2)CC1 [Olaparib]; conditions: max 10 µM
Procedure, shortened: as §1

AZD4320 = compound: CN(CC[C@H](CSC1=CC=CC=C1)NC2=C(C=C(C=C2)S(=O)(=O)NC(=O)C3=CC=C(C=C3)N4CCC(CC4)[C@H](C5=CC=CC=C5C6=CC=C(C=C6)Cl)O)S(=O)(=O)C(F)(F)F)CCO [AZD4320]; conditions: max 1 µM
Procedure, shortened: as §1

Gemcitabine = compound: Nc1ccn([C@@H]2O[C@H](CO)[C@@H](O)C2(F)F)c(=O)n1 [Gemcitabine]; conditions: max 0.3 µM
Procedure, shortened: as §1

AZD6738 = compound: C[C@@H]1COCCN1C2=NC(=NC(=C2)C3(CC3)[S@](=N)(=O)C)C4=C5C=CNC5=NC=C4 [AZD6738]; conditions: max 10 µM
Procedure, shortened: as §1

AZD5363 = compound: C1CN(CCC1(C(=O)N[C@@H](CCO)C2=CC=C(C=C2)Cl)N)C3=NC=NC4=C3C=CN4 [AZD5363]; conditions: max 10 µM
Procedure, shortened: as §1

Doxorubicin = compound: COc1cccc2c1C(=O)c1c(O)c3c(c(O)c1C2=O)C[C@@](O)(C(=O)CO)C[C@@H]3O[C@H]1C[C@H](N)[C@H](O)[C@H](C)O1 [Doxorubicin]; conditions: max 1 µM
Procedure, shortened: as §1

SRA737 = compound: N#Cc1cnc(Nc2cc(NC[C@H]3CNCCO3)c(C(F)(F)F)cn2)cn1 [SRA737]; conditions: max 10 µM
Procedure, shortened: as §1

Paclitaxel = compound: CC(=O)O[C@H]1C(=O)[C@@]2(C)[C@H]([C@H](OC(=O)c3ccccc3)[C@]3(O)C[C@H](OC(=O)[C@H](O)[C@@H](NC(=O)c4ccccc4)c4ccccc4)C(C)=C1C3(C)C)[C@]1(OC(C)=O)CO[C@@H]1C[C@@H]2O [Paclitaxel]; conditions: max 3 µM
Procedure, shortened: as §1

Lapatinib = compound: CS(=O)(=O)CCNCc1ccc(-c2ccc3ncnc(Nc4ccc(OCc5cccc(F)c5)c(Cl)c4)c3c2)o1 [Lapatinib]; conditions: max 10 µM
Procedure, shortened: as §1

AZD2811 = compound: CCN(CCO)CCCOc1ccc2c(Nc3cc(CC(=O)Nc4cccc(F)c4)[nH]n3)ncnc2c1 [AZD2811]; conditions: max 1 µM
Procedure, shortened: as §1

SN-38 = compound: CCc1c2c(nc3ccc(O)cc13)-c1cc3c(c(=O)n1C2)COC(=O)[C@]3(O)CC [SN-38]; conditions: max 0.3 µM
Procedure, shortened: as §1

AZD0156 = compound: CN(C)CCCOc1ccc(-c2ccc3ncc4c(c3c2)n(C2CCOCC2)c(=O)n4C)cn1 [AZD0156]
Procedure, shortened: as §1

SG3199 = compound: CC1=CN2[C@@H](C1)C=NC3=CC(=C(C=C3C2=O)OC)OCCCCCOC4=C(C=C5C(=C4)N=C[C@@H]6CC(=CN6C5=O)C)OC [SG3199]; conditions: max 0.001 µM
Procedure, shortened: as §1

Dasatinib = compound: CC1=C(C(=CC=C1)Cl)NC(=O)C2=CN=C(S2)NC3=CC(=NC(=N3)C)N4CCN(CC4)CCO [Dasatinib]; conditions: max 2 µM
Procedure, shortened: as §1

Palbociclib = compound: CC(=O)c1c(C)c2cnc(Nc3ccc(N4CCNCC4)cn3)nc2n(C2CCCC2)c1=O [Palbociclib]; conditions: max 10 µM
Procedure, shortened: as §1

Cell Line	IC50, cell viability 72 h (AZD5991) [nM]	IC50, cell viability 72 h (Alisertib) [nM]	IC50, cell viability 72 h (Taselisib) [nM]	IC50, cell viability 72 h (AZD1390) [nM]	IC50, cell viability 72 h (Prexasertib) [nM]	IC50, cell viability 72 h (AZD8186) [nM]	IC50, cell viability 72 h (Carboplatin) [nM]	IC50, cell viability 72 h (Venetoclax) [nM]	IC50, cell viability 72 h (Trametinib) [nM]	IC50, cell viability 72 h (AZD7648) [nM]	IC50, cell viability 72 h (5-Fluorouracil) [nM]	IC50, cell viability 72 h [1] [nM]	IC50, cell viability 72 h (Gefitinib) [nM]	IC50, cell viability 72 h (Etoposide) [nM]	IC50, cell viability 72 h (MK-2206) [nM]	IC50, cell viability 72 h (Crizotinib) [nM]	IC50, cell viability 72 h (AZD1775; max 3 µM) [nM]	IC50, cell viability 72 h (Savolitinib) [nM]	IC50, cell viability 72 h (AZD5153) [nM]	IC50, cell viability 72 h (Selumetinib) [nM]	IC50, cell viability 72 h (Olaparib) [nM]	IC50, cell viability 72 h (AZD4320) [nM]	IC50, cell viability 72 h (Gemcitabine) [nM]	IC50, cell viability 72 h (AZD6738) [nM]	IC50, cell viability 72 h (AZD5363) [nM]	IC50, cell viability 72 h (Doxorubicin) [nM]	IC50, cell viability 72 h (SRA737) [nM]	IC50, cell viability 72 h (Paclitaxel) [nM]	IC50, cell viability 72 h (Lapatinib) [nM]	IC50, cell viability 72 h (AZD2811) [nM]	IC50, cell viability 72 h (SN-38) [nM]	IC50, cell viability 72 h (AZD0156; max 3 µM) [nM]	IC50, cell viability 72 h (SG3199) [nM]	IC50, cell viability 72 h (Dasatinib) [nM]	IC50, cell viability 72 h (Palbociclib) [nM]	IC50, cell viability 72 h (AZD1775; max 1 µM) [nM]	IC50, cell viability 72 h (AZD0156; max 1 µM) [nM]
MOG-G-UVW (Low Grade Glioma)	> 1000	562	3690	> 300	26.5	9250	> 10000	> 1000	148	> 10000	> 20000	> 5000	> 10000	1600	> 10000	4010	582	> 1000	340	> 10000	> 10000	> 1000	27.3	5120	> 10000	156	> 10000	3	> 10000	344	11.7	> 3000	> 1	> 2000	> 10000		
MOLT-4 (T-Lymphoblastic Leukemia)	> 1000	37.6	5930	> 300	13.2	> 10000	> 10000	> 1000	> 1000	> 10000	12800	> 5000	> 10000	123	6710	2110	428	> 1000	> 1000	> 10000	> 10000	93.1	58.3	1690	4180	57	2310	6.6	> 10000	31.1	2.99	> 3000	> 1	> 2000	7920		
MV-4-11 (Acute Myeloid Leukemia)	5.9	35.5	7860	> 300	17.1	> 10000	> 10000	7.99	70.3	> 10000	939	1350	4160	149	7870	1880		> 1000	24.2	3350	> 10000	1.74	3.43	994	4430	33.1	1290	3.97	> 10000	20.6	2.99		> 1	> 2000	1000	503	> 1000
